# Source: ChEMBL document CHEMBL1201862, “PubChem BioAssay data set” (2004)
#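 48-hour exposure; five concentrations; linearly interpolated endpoints. GI50 marks 50% less growth.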 Active and inactive are the calls of the source. No stated cut-off is given here; in the data, active = GI50 up to about 1.1 µM and inactive = higher.
# Tests used:
# Assay in all cases: growth of human tumour cells (NCI), 48 h
# CCRF-CEM = system: CCRF-CEM
# KM12 = system: KM12
# UO-31 = system: UO-31
# SK-MEL-2 = system: SK-MEL-2
# EKVX = system: EKVX
# SF-268 = system: SF-268
# NCI-H460 = system: NCI-H460
# 786-0 = system: 786-0
# OVCAR-8 = system: OVCAR-8
# HCT-15 = system: HCT-15
# U-251 = system: U-251
# ACHN = system: ACHN
# NCI-H226 = system: NCI-H226
# IGROV-1 = system: IGROV-1
# OVCAR-5 = system: OVCAR-5
# SNB-75 = system: SNB-75
# HCT-116 = system: HCT-116
# OVCAR-3 = system: OVCAR-3
# SR = system: SR
SMILES,GI50 (CCRF-CEM),GI50 (KM12),GI50 (UO-31),GI50 (SK-MEL-2),GI50 (EKVX),GI50 (SF-268),GI50 (NCI-H460),GI50 (786-0),GI50 (OVCAR-8),GI50 (HCT-15),GI50 (U-251),GI50 (ACHN),GI50 (NCI-H226),GI50 (IGROV-1),GI50 (OVCAR-5),GI50 (SNB-75),GI50 (HCT-116),GI50 (OVCAR-3),GI50 (SR)
c1cc2nnsc2s1,> 100 µM (inactive),> 100 µM (inactive),> 100 µM (inactive),> 100 µM (inactive),> 100 µM (inactive),> 100 µM (inactive),> 100 µM (inactive),44.5 µM (inactive),> 100 µM (inactive),> 100 µM,> 100 µM (inactive),> 100 µM (inactive),> 100 µM (inactive),> 100 µM (inactive),> 100 µM (inactive),> 100 µM (inactive),,,
CC1=C(C(=O)CC(=O)C(=O)Nc2ccccc2C(F)(F)F)Sc2ccccc2N1,49.7 µM (inactive),39.1 µM (inactive),25.4 µM (inactive),> 100 µM (inactive),64.7 µM (inactive),15.7 µM (inactive),57.1 µM (inactive),> 100 µM (inactive),50 µM (inactive),48.4 µM,64.9 µM (inactive),73.3 µM (inactive),15.6 µM (inactive),44 µM (inactive),> 100 µM (inactive),4.23 µM (inactive),34.8 µM (inactive),25.4 µM (inactive),
CC1(C)C2C/C(=C\c3ccccc3)C(=O)C1C2 (stereo not given),> 100 µM (inactive),> 100 µM (inactive),31.1 µM (inactive),> 100 µM (inactive),86.9 µM (inactive),79.8 µM (inactive),> 100 µM (inactive),> 100 µM (inactive),> 100 µM (inactive),> 100 µM,> 100 µM (inactive),> 100 µM (inactive),,> 100 µM (inactive),> 100 µM (inactive),25.1 µM (inactive),90.4 µM (inactive),> 100 µM (inactive),
CC(=O)OC1c2ccccc2CCCCCCC12OCCO2 (stereo not given),> 100 µM (inactive),> 100 µM (inactive),> 100 µM (inactive),> 100 µM (inactive),,> 100 µM (inactive),> 100 µM (inactive),> 100 µM (inactive),> 100 µM (inactive),68.1 µM,> 100 µM (inactive),> 100 µM (inactive),> 100 µM (inactive),> 100 µM (inactive),> 100 µM (inactive),> 100 µM (inactive),> 100 µM (inactive),33 µM (inactive),
O=c1c2cc(Br)cc(Br)c2nc(CCCl)n1CCO,41 µM (inactive),> 100 µM (inactive),34.7 µM (inactive),> 100 µM (inactive),73.8 µM (inactive),47.1 µM (inactive),> 100 µM (inactive),> 100 µM (inactive),> 100 µM (inactive),,67.1 µM (inactive),60.7 µM (inactive),39 µM (inactive),75.9 µM (inactive),> 100 µM (inactive),22.6 µM (inactive),> 100 µM (inactive),52.2 µM (inactive),
CC(=O)OCCOCNC(=S)N/N=C/c1ccc(Br)s1,3.74 µM (inactive),> 100 µM (inactive),> 100 µM (inactive),> 100 µM (inactive),> 36.2 µM (inactive),> 100 µM (inactive),78.3 µM (inactive),> 76.6 µM (inactive),> 100 µM (inactive),> 100 µM,> 95.3 µM (inactive),> 100 µM (inactive),> 100 µM (inactive),> 100 µM (inactive),> 100 µM (inactive),> 100 µM (inactive),55 µM (inactive),> 89.1 µM (inactive),
COc1ccc(CC2c3c(cc(OC)c(OC)c3OC)CCN2C)cc1OC (stereo not given),> 100 µM (inactive),> 100 µM (inactive),> 100 µM (inactive),> 100 µM (inactive),> 100 µM (inactive),> 100 µM (inactive),> 100 µM (inactive),> 100 µM (inactive),> 100 µM (inactive),> 100 µM,> 100 µM (inactive),> 100 µM (inactive),,,> 100 µM (inactive),> 100 µM (inactive),> 100 µM (inactive),> 100 µM (inactive),
CS(=O)(=O)N(CCC#N)c1ccc(/C=N/NC(=O)CC(=O)Nc2cccc(Cl)c2)cc1,> 100 µM (inactive),> 100 µM (inactive),> 100 µM (inactive),> 100 µM (inactive),> 100 µM (inactive),> 100 µM (inactive),> 100 µM (inactive),> 100 µM (inactive),> 100 µM (inactive),> 100 µM,> 100 µM (inactive),> 100 µM (inactive),> 100 µM (inactive),> 100 µM (inactive),> 100 µM (inactive),> 100 µM (inactive),> 100 µM (inactive),> 100 µM (inactive),
N#Cc1cc([N+](=O)[O-])ccc1NC(=O)C(=O)Nc1n[nH]c(N)n1,> 100 µM (inactive),> 100 µM (inactive),> 100 µM (inactive),> 100 µM (inactive),> 100 µM (inactive),> 100 µM (inactive),> 100 µM (inactive),> 100 µM (inactive),> 100 µM (inactive),> 100 µM,> 100 µM (inactive),> 100 µM (inactive),86.3 µM (inactive),> 100 µM (inactive),> 100 µM (inactive),> 100 µM (inactive),> 100 µM (inactive),> 100 µM (inactive),
CCCn1c(SCCSc2c3ccccc3c(-c3nc(F)nc(F)n3)n2CCC)c2ccccc2c1-c1nc(F)nc(F)n1,46.9 µM (inactive),> 100 µM (inactive),> 100 µM (inactive),> 100 µM (inactive),> 100 µM (inactive),> 100 µM (inactive),> 100 µM (inactive),> 100 µM (inactive),> 100 µM (inactive),> 100 µM,> 100 µM (inactive),82.6 µM (inactive),,,> 100 µM (inactive),> 100 µM (inactive),> 100 µM (inactive),> 100 µM (inactive),27 µM (inactive)
Nc1ccccc1C(=O)/C=C/c1ccccc1O,33.9 µM (inactive),31 µM (inactive),58.5 µM (inactive),28.3 µM (inactive),> 100 µM (inactive),56.5 µM (inactive),67.1 µM (inactive),57 µM (inactive),50.8 µM (inactive),,95.9 µM (inactive),,> 100 µM (inactive),> 100 µM (inactive),> 100 µM (inactive),17.5 µM (inactive),38.2 µM (inactive),31.4 µM (inactive),
NCCN1C(=O)C2C3c4ccccc4C(c4ccccc43)C2C1=O (stereo not given),> 100 µM (inactive),> 100 µM (inactive),> 100 µM (inactive),> 100 µM (inactive),> 100 µM (inactive),> 100 µM (inactive),> 100 µM (inactive),> 100 µM (inactive),> 100 µM (inactive),> 100 µM,> 100 µM (inactive),> 100 µM (inactive),> 100 µM (inactive),> 100 µM (inactive),> 100 µM (inactive),43.3 µM (inactive),> 100 µM (inactive),> 100 µM (inactive),
CC(=O)NC(CCCNCc1ccccc1)C(=O)NCc1ccccc1 (stereo not given),> 100 µM (inactive),> 100 µM (inactive),> 100 µM (inactive),> 100 µM (inactive),> 100 µM (inactive),> 100 µM (inactive),> 100 µM (inactive),> 100 µM (inactive),> 100 µM (inactive),> 100 µM,> 100 µM (inactive),> 100 µM (inactive),> 100 µM (inactive),> 100 µM (inactive),> 100 µM (inactive),87.3 µM (inactive),> 100 µM (inactive),> 100 µM (inactive),
COc1cc([C@@H]2c3cc4c(cc3[C@@H](NCc3ccccc3F)C3COC(=O)[C@@H]32)OCO4)cc(OC)c1O (stereo not given in full),1.49 µM (inactive),3.99 µM (inactive),4.05 µM (inactive),23.4 µM (inactive),10.7 µM (inactive),4.69 µM (inactive),0.56 µM (active),2.81 µM (inactive),6.03 µM (inactive),1.63 µM,1.89 µM (inactive),1.11 µM (active),2.06 µM (inactive),1.11 µM (active),24.8 µM (inactive),5.45 µM (inactive),5.27 µM (inactive),15.6 µM (inactive),
CO[C@]12CCC(=O)N1C=Cc1c2[nH]c2ccccc12,> 100 µM (inactive),,> 100 µM (inactive),,> 100 µM (inactive),> 100 µM (inactive),> 100 µM (inactive),> 100 µM (inactive),> 100 µM (inactive),> 100 µM,,> 100 µM (inactive),> 100 µM (inactive),> 100 µM (inactive),> 100 µM (inactive),> 100 µM (inactive),> 100 µM (inactive),> 100 µM (inactive),> 100 µM (inactive)
COc1cc(C2c3cc4c(cc3[C@@H](NCCN3CCCCC3)C3COC(=O)[C@H]23)OCO4)cc(OC)c1O (stereo not given in full),0.055 µM (active),1.08 µM (active),0.566 µM (active),2.06 µM (inactive),1.63 µM (inactive),0.628 µM (active),,0.188 µM (active),0.998 µM (active),0.337 µM,0.122 µM (active),0.671 µM (active),0.0324 µM (active),1.46 µM (inactive),1.69 µM (inactive),0.256 µM (active),1.82 µM (inactive),1.04 µM (active),
